From patent publication US10294202B2, “Pyrrolidinones as herbicides” (FMC Corporation, priority 2013, dated 2019)

Experiments:
foxtail, giant = experiment: Test E preemergence herbicide test; assay type: in vivo, Setaria faberii; set-up: key: 0 = no effect, 100 = complete control
Text: (§1) Seeds of plant species selected from corn (Zea mays), soybean (Glycine max), velvetleaf (Abutilon theophrasti), lambsquarters (Chenopodium album), wild poinsettia (Euphorbia heterophylla), pigweed, palmer (palmer pigweed, Amaranthus palmeri), waterhemp (common waterhemp, Amaranthus rudis), surinam grass (Brachiaria decumbens), crabgrass, large (large crabgrass, Digitaria sanguinalis), crabgrass, Brazil (Brazilian crabgrass, Digitaria horizontalis), panicum, fall (fall panicum, Panicum dichotomiflorum), foxtail, giant (giant foxtail, Setaria faberii), foxtail, green (green foxtail, Setaria viridis), goosegrass (Eleusine indica), johnsongrass (Sorghum halepense), ragweed (common ragweed, Ambrosia elatior), barnyardgrass (Echinochloa crus-galli), sandbur (southern sandbur, Cenchrus echinatus), arrowleaf […] rhombifolia), ryegrass, Italian (Italian ryegrass, Lolium multiflorum), dayflower, VA (Virginia dayflower, Commelina virginica), field bindweed (Convolvulus arvensis), morningglory (Ipomoea coccinea), nightshade (eastern black nightshade, Solanum ptycanthum), kochia (Kochia scoparia), nutsedge, yellow (yellow nutsedge, Cyperus esculentus), cocklebur (common cocklebur, Xanthium strumarium), smartweed (ladysthumb smartweed, Polygonum Persicaria) and beggarticks (hairy beggarticks, Bidens pilosa), were planted into a silt loam soil and treated preemergence with test chemicals formulated in a non-phytotoxic solvent mixture which included a surfactant. Treated plants and controls were maintained in a greenhouse for 21 days, after which time all species were compared to controls and visually evaluated. Plant response ratings, summarized in Table E, are based on a scale of 0 to 100 where 0 is no effect and 100 is complete control. A dash (-) response means no test result.

surinam grass = experiment: Test E preemergence herbicide test; assay type: in vivo, Brachiaria decumbens; set-up: key: 0 = no effect, 100 = complete control
Text: as §1

waterhemp = experiment: Test E preemergence herbicide test; assay type: in vivo, Amaranthus rudis; set-up: key: 0 = no effect, 100 = complete control
Text: as §1

galium = experiment: Test D pre-/postemergence herbicide test; assay type: in vivo, Galium aparine; conditions: for Plant response rating, Galium: scale 0 to 100 (0 no effect, 100 complete control); for Plant response rating: Galium, scale 0 to 100
Text: (§2) Seeds of plant species selected from bluegrass (annual bluegrass, Poa annua), blackgrass (Alopecurus myosuroides), canarygrass (littleseed canarygrass, Phalaris minor), chickweed (common chickweed, Stellaria media), galium (catchweed bedstraw, Galium aparine), bromegrass, downy (downy bromegrass, Bromus tectorum), field poppy (Papaver rhoeas), field violet (Viola arvensis), foxtail, green (green foxtail, Setaria viridis), deadnettle (henbit deadnettle, Lamium amplexicaule), ryegrass, Italian (Italian ryegrass, Lolium multiflorum), kochia (Kochia scoparia), lambsquarters (Chenopodium album), oilseed rape (Brassica napus), pigweed (Amaranthus retroflexus), chamomile (scentless chamomile, Matricaria inodora), Russian thistle (Salsola kali), speedwell (bird's-eye speedwell, Veronica persica), barley, spring (spring barley, Hordeum vulgare), wheat, spring (spring wheat, Triticum aestivum), buckwheat, wild (wild buckwheat, Polygonum convolvulus), mustard, wild (wild mustard, Sinapis arvensis), oat, wild (wild oat, Avena fatua), radish, wild (wild radish, Raphanus raphanistrum), […]), barley, winter (winter barley, Hordeum vulgare), and wheat, winter (winter wheat, Triticum aestivum) were planted into a silt loam soil and treated preemergence with test chemicals formulated in a non-phytotoxic solvent mixture which included a surfactant. At the same time, these species were planted in pots containing Redi-Earth® planting medium (Scotts Company, 14111 Scottslawn Road, Marysville, Ohio 43041) comprising spaghnum peat moss, vermiculite, wetting agent and starter nutrients and treated with postemergence applications of the test chemicals formulated in the same manner. Plants ranged in height from 2 to 18 cm (1- to 4-leaf stage). Treated plants and controls were maintained in a controlled growth environment for 7 to 21 days after which time all species were compared to controls and visually evaluated. Plant response ratings, summarized in Table D, are based on a scale of 0 to 100 where 0 is no effect and 100 is complete control. A dash (-) response means no test result.

foxtail, green = experiment: Test D pre-/postemergence herbicide test; assay type: in vivo, Setaria viridis; conditions: for Plant response rating, Foxtail, Green: scale 0 to 100 (0 no effect, 100 complete control); for Plant response rating: Foxtail, Green, scale 0 to 100
Text: as §2

bluegrass = experiment: Test D pre-/postemergence herbicide test; assay type: in vivo, Poa annua; conditions: for Plant response rating, Bluegrass: scale 0 to 100 (0 no effect, 100 complete control); for Plant response rating: Bluegrass, scale 0 to 100
Text: as §2

buckwheat, wild = experiment: Test D pre-/postemergence herbicide test; assay type: in vivo, Polygonum convolvulus; conditions: for Plant response rating, Buckwheat, Wild: scale 0 to 100 (0 no effect, 100 complete control); for Plant response rating: Buckwheat, Wild, scale 0 to 100
Text: as §2

SMILES: O=C1NCC(c2ccc(F)cc2)C1C(=O)Nc1ccccc1F (racemic) [Compound 16]
- Plant response rating, Foxtail, Giant (foxtail, giant; 16 g ai/ha): 0
- Plant response rating, Foxtail, Giant (foxtail, giant; 31 g ai/ha): 0
- Plant response rating, Foxtail, Giant (foxtail, giant; 62 g ai/ha): 15
- Plant response rating, Foxtail, Giant (foxtail, giant; 125 g ai/ha): 25
- Plant response rating, Foxtail, Giant (foxtail, giant; 250 g ai/ha): 95
- Plant response rating, Surinam Grass (surinam grass; 16 g ai/ha): 0
- Plant response rating, Surinam Grass (surinam grass; 31 g ai/ha): 0
- Plant response rating, Surinam Grass (surinam grass; 62 g ai/ha): 20
- Plant response rating, Surinam Grass (surinam grass; 125 g ai/ha): 35
- Plant response rating, Surinam Grass (surinam grass; 250 g ai/ha): 60
- Plant response rating, Waterhemp (waterhemp; 16 g ai/ha): 0
- Plant response rating, Waterhemp (waterhemp; 31 g ai/ha): 0
- Plant response rating, Waterhemp (waterhemp; 62 g ai/ha): 0
- Plant response rating, Waterhemp (waterhemp; 125 g ai/ha): 0
- Plant response rating, Waterhemp (waterhemp; 250 g ai/ha): 0

SMILES: O=C1NCC(c2cccc(C(F)(F)F)c2)C1C(=O)Nc1cccc(F)c1F (stereo not shown) [Compound 241]
- Plant response rating, Galium (galium; Preemergence, 31 g ai/ha): 20
- Plant response rating, Galium (galium; Preemergence, 62 g ai/ha): 25
- Plant response rating, Galium (galium; Preemergence, 125 g ai/ha): 35
- Plant response rating (galium; Preemergence, 250 g ai/ha): 80
- Plant response rating, Foxtail, Green (foxtail, green; Preemergence, 31 g ai/ha): 35
- Plant response rating, Foxtail, Green (foxtail, green; Preemergence, 62 g ai/ha): 90
- Plant response rating, Foxtail, Green (foxtail, green; Preemergence, 125 g ai/ha): 90
- Plant response rating (foxtail, green; Preemergence, 250 g ai/ha): 90
- Plant response rating, Bluegrass (bluegrass; Preemergence, 31 g ai/ha): 15
- Plant response rating, Bluegrass (bluegrass; Preemergence, 62 g ai/ha): 15
- Plant response rating, Bluegrass (bluegrass; Preemergence, 125 g ai/ha): 45
- Plant response rating (bluegrass; Preemergence, 250 g ai/ha): 70
- Plant response rating, Buckwheat, Wild (buckwheat, wild; Preemergence, 31 g ai/ha): 15
- Plant response rating, Buckwheat, Wild (buckwheat, wild; Preemergence, 62 g ai/ha): 15
- Plant response rating, Buckwheat, Wild (buckwheat, wild; Preemergence, 125 g ai/ha): 20
- Plant response rating (buckwheat, wild; Preemergence, 250 g ai/ha): 80

SMILES: O=C1NCC(c2cc(F)c(F)c(F)c2)C1C(=O)Nc1ccccc1C(F)(F)F (racemic) [Compound 33]
- Plant response rating (galium; Postemergence, 16 g ai/ha): 0
- Plant response rating (galium; Postemergence, 31 g ai/ha): 0
- Plant response rating (galium; Postemergence, 62 g ai/ha): 0
- Plant response rating (galium; Postemergence, 125 g ai/ha): 0
- Plant response rating (galium; Postemergence, 250 g ai/ha): 0
- Plant response rating (foxtail, green; Postemergence, 16 g ai/ha): 0
- Plant response rating (foxtail, green; Postemergence, 31 g ai/ha): 0
- Plant response rating (foxtail, green; Postemergence, 62 g ai/ha): 0
- Plant response rating (foxtail, green; Postemergence, 125 g ai/ha): 0
- Plant response rating (foxtail, green; Postemergence, 250 g ai/ha): 0
- Plant response rating (bluegrass; Postemergence, 16 g ai/ha): 0
- Plant response rating (bluegrass; Postemergence, 31 g ai/ha): 0
- Plant response rating (bluegrass; Postemergence, 62 g ai/ha): 0
- Plant response rating (bluegrass; Postemergence, 125 g ai/ha): 0
- Plant response rating (bluegrass; Postemergence, 250 g ai/ha): 0
- Plant response rating (buckwheat, wild; Postemergence, 16 g ai/ha): 0
- Plant response rating (buckwheat, wild; Postemergence, 31 g ai/ha): 0
- Plant response rating (buckwheat, wild; Postemergence, 62 g ai/ha): 0
- Plant response rating (buckwheat, wild; Postemergence, 125 g ai/ha): 0
- Plant response rating (buckwheat, wild; Postemergence, 250 g ai/ha): 10

SMILES: O=C1NCC(c2cccc(C(F)(F)F)c2)C1C(=O)Nc1ccc(F)cc1F (racemic) [Compound 207]
- Plant response rating, Galium (galium; Preemergence, 31 g ai/ha): 55
- Plant response rating, Galium (galium; Preemergence, 62 g ai/ha): 60
- Plant response rating, Galium (galium; Preemergence, 125 g ai/ha): 45
- Plant response rating (galium; Preemergence, 250 g ai/ha): 20
- Plant response rating, Foxtail, Green (foxtail, green; Preemergence, 31 g ai/ha): 15
- Plant response rating, Foxtail, Green (foxtail, green; Preemergence, 62 g ai/ha): 60
- Plant response rating, Foxtail, Green (foxtail, green; Preemergence, 125 g ai/ha): 75
- Plant response rating (foxtail, green; Preemergence, 250 g ai/ha): 90
- Plant response rating, Bluegrass (bluegrass; Preemergence, 31 g ai/ha): 0
- Plant response rating, Bluegrass (bluegrass; Preemergence, 62 g ai/ha): 15
- Plant response rating, Bluegrass (bluegrass; Preemergence, 125 g ai/ha): 15
- Plant response rating (bluegrass; Preemergence, 250 g ai/ha): 30
- Plant response rating, Buckwheat, Wild (buckwheat, wild; Preemergence, 31 g ai/ha): 0
- Plant response rating, Buckwheat, Wild (buckwheat, wild; Preemergence, 62 g ai/ha): 15
- Plant response rating, Buckwheat, Wild (buckwheat, wild; Preemergence, 125 g ai/ha): 25
- Plant response rating (buckwheat, wild; Preemergence, 250 g ai/ha): 35
